# Results reported in US20030219831A1, “Split-hybrid system” (priority 2002, published 2003).
# Key:
# Type in all cases: cell-based
# [1] = system: interactions of Gal4N-IDII with SMRT-RAR; experiment: Split-hybrid system, SMRT-RAR and Gal4N-IDII with Gal-RSV-Luc; conditions: Gal-RSV-Luc, 8.5-fold repression without compound
# Description: Next, two fusion proteins, SMRT-RAR and Gal4N-IDII, were co-expressed in a cell containing a Gal-RSV-Luc reporter gene construct. Unexpectedly, interactions of Gal4N-IDII with SMRT-RAR conferred 8.5-fold repression. This repression was reversed by retinoid acid treatment.
# [2] = system: interactions between RAR and IDII; experiment: Retinoid acid split-hybrid system, NLS-HA-Mad-RAR and Gal4N-IDII with Gal-TK-Luc; design: dose or concentration left out as unconfirmed; conditions: Gal-TK-Luc, ~7.5 fold repression without compound
# Description: (§1) Next, two fusion proteins, NLS (nuclear localization signal)-HA (hemagglutinin)-Mad-RAR and Gal4N-IDII, were co-expressed in a cell containing a Gal-TK-Luc reporter gene construct. Unexpectedly, interactions between RAR and IDII led to a ˜7.5 fold repression of the reporter gene activity.
# Gal-TK-Luc = experiment: Specificity control, Gal-TK-Luc by itself or with co-transfection controls; conditions: Gal-TK-Luc by itself or with controls Gal4N-Mad, Gal4N-IDII and NLS-HA-Mad-RAR
# Description: as §1
# [3] = system: interactions between RAR and IDII; experiment: Two-hybrid reporter assay, VP16-RAR and Gal4N-IDII co-expressed with Gal-TK-Luc; conditions: 1 mM retinoid acid; VP16-RAR + Gal4N-IDII, Gal-TK-Luc; ~120 fold without compound
# Description: Two fusion proteins, VP16-RAR and Gal4N-IDII, were co-expressed in a cell containing a Gal-TK-Luc reporter gene construct. Unexpectedly, interactions between RAR and IDII led to a ˜120 fold induction of the reporter gene activity. In contrast, in the presence of 1 mM retinoid acid, interactions of IDII with RAR were blocked and induction of the reporter gene activity was reduced to only ˜7 fold.
# RAR and IDI1 = experiment: Split-hybrid system with RED1 reporter, RAR and IDII; conditions: in the presence of retinoid acid
smiles,measurement,setting,value
CC1=C(/C=C/C(C)=C/C=C/C(C)=C/C(=O)O)C(C)(C)CCC1 [retinoid acid],reversal of repression of the reporter gene,[1],reversed
same,reversal of repression of the reporter gene activity,[2],completely reversed
same,alteration of reporter gene activity of Gal-TK-Luc,Gal-TK-Luc,did not significantly alter
same,induction of the reporter gene activity,[3],~7 fold
same,red fluorescence from RED1 reporter,RAR and IDI1,detected
